What was measured:
[1] = Emission studies (SWIR emission spectra, 980 nm excitation); assay type: physicochemical; settings: organic solvent (dichloromethane) / water when encapsulated in a polymer; SiRos1 in DCM (FIG. 13)
Protocol: 0.1 mg of silicone-based compound was combined with 10 mg DSPE-mPEG2000 (1% loading of dye by mass) in 3 mL of dichloromethane (DCM) in a 10 mL scintillation vial. The solution was vortexed for 10 seconds to homogenously mix the components. DCM was evaporated from the solution on a rotary evaporator at 50° C. until the solution forms a thin paste around the vial. Subsequently, the vial was placed on high vacuum for a half an hour to remove any residual DCM. Next, 3 mL of D2O was added and the resulting mixture was sonicated for one minute with gentle swirling to dissolve the polymer and dye together. The mixture was syringe filtered (0.45 μm) to remove any unencapsulated compound.
The emission spectra of the dyes were recorded from 1000-2500 nm using a liquid nitrogen cooled InAs fluorimeter from Horiba. A 980 nm DPSS (diode pumped solid state laser, max power 2 W) laser was used as the excitation source and the chopper signal was split from the chopper control to the lock-in-amplifier as a reference signal and the trigger signal to the laser controller. All studies were performed at 1e-5 M in DCM or 0.1 mg of dye per 3 mL D2O solution (for D2O, the dyes were solubilized in a commercially available DSPE-mPEG2000 nanoparticle, preparation previously supplied).

[2] = Stability study: half-life in neutral aqueous solutions; assay type: physicochemical; settings: xylyl substituted derivatives
Source text: The introduction of the meta-xylyl ring on the silicon-rosindolizine bridge as found to impart substantial stability compared to a tolyl ring on the silicon-rosindolizine bride. […] This increased stability is critically important to some biological imaging applications. The meta-xylyl substituted derivative retain very similar spectral properties to the tolyl derivatives with absorption and emission observed in the SWIR region. […] Application in night vision, solar cells, and photodetectors are also possible with materials absorbing in this spectral region. […] The quantum yield is near 0.01-0.05% in these environments with peak emission of SiRos1 at ˜1350 nm (FIG. 13) and peak emission of SiRos2>1550 nm.

| Structure (SMILES) | peak emission [1] | half-life [2] |
| --- | --- | --- |
| CCCCC(CC)CC1=C(c2ccccc2)/C(=c2\ccc3c(c2)[Si](CC(CC)CCCC)(CC(CC)CCCC)c2cc(-c4c(-c5ccccc5)c(CC(CC)CCCC)c5cc(-c6ccc(N(C)C)cc6)ccn45)ccc2C=3c2c(C)cccc2C)[n+]2ccc(-c3ccc(N(C)C)cc3)cc21.[O-][Cl+3]([O-])([O-])[O-] (centres unmarked) [SiRos2, (Z)-7-(4-(dimethylamino)phenyl)-3-(7-(7-(4-(dimethylamino)phenyl)-1-(2-ethylhexyl)-2-phenylindolizin-3-yl)-10-(2,6-dimethylphenyl)-5,5-bis(2-ethylhexyl)dibenzo[b,e]silin-3(5H)-ylidene)-1-(2-ethylhexyl)-2-phenyl-3H-indolizin-4-ium perchlorate] | > 1550 nm | longer than a week |
| CCCCC(CC)C[Si]1(CC(CC)CCCC)c2cc(-c3c(-c4ccccc4)c(C)c4ccccn34)ccc2C(c2c(C)cccc2C)=c2cc/c(=C3\C(c4ccccc4)=C(C)c4cccc[n+]43)cc21.[O-][Cl+3]([O-])([O-])[O-] (centres unmarked) [SiRos1, (Z)-3-(10-(2,6-dimethylphenyl)-5,5-bis(2-ethylhexyl)-7-(1-methyl-2-phenylindolizin-3-yl)dibenzo[b,e]silin-3(5H)-ylidene)-1-methyl-2-phenyl-3H-indolizin-4-ium perchlorate] | ~1350 nm | longer than a week |
| CCCCC(CC)C[Si]1(CC(CC)CCCC)c2cc(-c3c(-c4ccccc4)c(-c4ccc(N(C)C)cc4)c4cc(-c5ccc(N(C)C)cc5)ccn34)ccc2C(c2c(C)cccc2C)=c2cc/c(=C3\C(c4ccccc4)=C(c4ccc(N(C)C)cc4)c4cc(-c5ccc(N(C)C)cc5)cc[n+]43)cc21.[O-][Cl+3]([O-])([O-])[O-] (centres unmarked) [SiRos3, (Z)-3-(7-(1,7-bis(4-(dimethylamino)phenyl)-2-phenylindolizin-3-yl)-10-(2,6-dimethylphenyl)-5,5-bis(2-ethylhexyl)dibenzo[b,e]silin-3(5H)-ylidene)-1,7-bis(4-(dimethylamino)phenyl)-2-phenyl-3H-indolizin-4-ium perchlorate] | – | longer than a week |
